Patent US20180008587A1, “THIOHYDANTOIN ANDROGEN RECEPTOR ANTAGONISTS FOR THE TREATMENT OF CANCER” (Jaressen Pharmaceutica NV, priority 2016, published 2018)
Residue numbers refer to the chain shown, from its start. Values joined by “and” are separate entries in the source; they are usually repeats but may differ in a detail not shown here. Equal entries are not always repeated. Where two headings read alike, the source gives them in different places.

What was measured:
[1] = biological target: T1, F876L mutant Androgen Receptor (AR-F876L) (Homo sapiens, UniProt P10275, F877L); assay: LNCaP-AR-F876L ANT reporter assay (ARE firefly luciferase, antagonist mode); type: cell-based; details: for Emax: read-out: LNCaP-AR-F876L ANT MAX % Inh; for IC50: read-out: LNCaP-AR-F876L ANT pIC50 (converted)
T1 construct: expressed in transfected cells; host or cells: LNCaP (LNCaP F876L)
T1 sequence (P10275 1-920 F877L): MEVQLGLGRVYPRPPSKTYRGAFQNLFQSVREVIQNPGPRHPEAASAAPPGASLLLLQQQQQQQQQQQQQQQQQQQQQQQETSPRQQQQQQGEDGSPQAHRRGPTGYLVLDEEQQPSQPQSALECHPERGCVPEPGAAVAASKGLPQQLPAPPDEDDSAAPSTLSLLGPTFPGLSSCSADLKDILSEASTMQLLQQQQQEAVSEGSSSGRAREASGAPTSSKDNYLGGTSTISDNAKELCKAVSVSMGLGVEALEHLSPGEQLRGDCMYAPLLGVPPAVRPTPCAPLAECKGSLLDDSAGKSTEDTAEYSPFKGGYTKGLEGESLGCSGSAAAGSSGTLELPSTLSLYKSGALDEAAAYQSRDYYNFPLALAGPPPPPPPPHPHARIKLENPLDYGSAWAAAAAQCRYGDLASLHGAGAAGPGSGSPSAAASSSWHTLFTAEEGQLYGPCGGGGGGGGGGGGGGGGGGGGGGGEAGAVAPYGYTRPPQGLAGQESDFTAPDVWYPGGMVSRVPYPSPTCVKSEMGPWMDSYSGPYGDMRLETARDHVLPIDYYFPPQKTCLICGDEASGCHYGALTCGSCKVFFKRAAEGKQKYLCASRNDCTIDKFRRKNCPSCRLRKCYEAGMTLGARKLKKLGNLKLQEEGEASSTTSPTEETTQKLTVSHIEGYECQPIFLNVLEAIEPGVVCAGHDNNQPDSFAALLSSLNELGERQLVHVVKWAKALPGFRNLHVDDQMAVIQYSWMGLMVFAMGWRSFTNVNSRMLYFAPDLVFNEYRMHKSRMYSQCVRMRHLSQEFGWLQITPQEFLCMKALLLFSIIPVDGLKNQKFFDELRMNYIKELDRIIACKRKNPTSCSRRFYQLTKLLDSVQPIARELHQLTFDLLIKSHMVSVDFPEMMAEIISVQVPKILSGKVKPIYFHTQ
Method in brief: (§1)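 LNCaP stable pooled lines expressing ARE-firefly luciferase, in charcoal-stripped serum medium, were exposed to compounds; antagonist mode used agonist at 400 pM (WT) or 600 pM (F876L).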

[2] = biological target: T2, wild-type Androgen Receptor (AR-wt) (Homo sapiens, UniProt P10275); assay: LNCaP-AR-wt AG reporter assay (ARE firefly luciferase, agonist mode); type: cell-based; details: for Emax: read-out: LNCaP-AR-wt AG MAX % Stim
T2 construct: expressed in transfected cells; host or cells: LNCaP (LNCaP AR (cs))
T2 sequence (P10275 1-920): T1 sequence (P10275 1-920 F877L) with L877F
Method in brief: (§2)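 Puromycin-selected pooled LNCaP populations expressing AR-wt or AR-F876L are seeded in CSS medium and treated with compound for 20-24 h at 37 °C. For antagonist testing, agonist is added at 400 pM (WT) or 600 pM (F876L). Potency values derive from least-squares fitting of luminescence RLU.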

[3] = biological target: T1, F876L mutant Androgen Receptor (AR-F876L); assay: LNCaP-AR-F876L AG reporter assay (ARE firefly luciferase, agonist mode); type: cell-based; details: for Emax: read-out: LNCaP-AR-F876L AG MAX % Stim
Method in brief: as §2

[4] = biological target: T2, wild-type Androgen Receptor (AR-wt); assay: LNCaP-AR-wt ANT reporter assay (ARE firefly luciferase, antagonist mode); type: cell-based; details: for IC50: antagonist mode, 400 pM R-1881 challenge, −Log10(IC50 [Molar]), read-out: LNCaP-AR-wt ANT pIC50 (converted); for Emax: read-out: LNCaP-AR-wt ANT MAX % Inh
Method in brief: as §1

F876L-VP16 = biological target: T3, F876L-VP16 (Homo sapiens, UniProt P10275, F877L); assay: AR-VP16 DNA binding assay, HepG2; type: cell-based; details: HepG2, antagonist mode, 1 nM R1881, 48 hours
T3 construct: VP16 (fusion partner); expressed in transfected cells; host or cells: HepG2
T3 sequence (P10275 1-920 F877L): T1 sequence (P10275 1-920 F877L)
Experimental: (§3) HepG2 cells were maintained in EMEM supplemented with 10% FBS. One day before transfection, the media was changed to EMEM with 10% CSS. […] Cells were then trypsinized, counted and resuspended at 500,000 cells/mL. For agonist mode, the compounds were serially diluted and 50 μL of the compound was added per well. 50 μL of the cells were added to each well and incubated for 48 hours. For antagonist mode, a final concentration of 90 pM (VP16 AR) or 1 nM (VP16 F876L) R1881 was added to the plate and incubated for 48 hours. The plates were then assayed using SteadyGlo and read on the Envision. Percent Stimulation and Inhibition were determined and analyzed using GraphPad Prism.

AR-VP16 = biological target: T4, AR-VP16 (Homo sapiens, UniProt P10275); assay: AR-VP16 DNA binding assay, HepG2; type: cell-based; details: HepG2, antagonist mode, 90 pM R1881, 48 hours; read-out: IC50 VP16 WT
T4 sequence (P10275 560-920 limits assumed): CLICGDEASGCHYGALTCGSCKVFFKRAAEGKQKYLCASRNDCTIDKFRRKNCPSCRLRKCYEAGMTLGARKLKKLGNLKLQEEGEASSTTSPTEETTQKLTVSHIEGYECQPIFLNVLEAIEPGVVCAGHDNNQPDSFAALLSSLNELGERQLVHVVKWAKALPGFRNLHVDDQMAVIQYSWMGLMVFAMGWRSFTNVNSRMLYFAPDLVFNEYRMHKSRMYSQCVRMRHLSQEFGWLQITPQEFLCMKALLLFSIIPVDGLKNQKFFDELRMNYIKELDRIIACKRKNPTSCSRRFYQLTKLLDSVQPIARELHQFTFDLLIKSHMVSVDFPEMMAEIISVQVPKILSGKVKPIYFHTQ
Experimental: as §3

[5] = test system: androgen dependent signaling; assay: Hershberger assay; type: in vivo, rat
Experimental: The effect of AR antagonists on androgen dependent signaling in vivo was assessed using the Hershberger assay. In this assay, peripubertal castrated male Sprague-Dawley rats were administered AR antagonists described herein in the presence of testosterone (0.4 mg/kg testosterone propionate) and the weights of androgen dependent organs measured. Dosing was continued for 10 days and measurements taken 24 h after the last dose. The extent of antagonism of AR and consequent inhibition of organ growth was evaluated by comparison to the castration control. Compounds of Formula (I) were dosed orally QD and an endpoint assessment made by change in weight of 5 androgen sensitive organs (ASO): Paired Cowper's Glands (CG), Seminal Vesicles with Fluids and Coagulating Glands (SVCG), Glans Penis (GP), Ventral Prostate (VP) and Levator Ani-Bulbocavernosus Complex (LABC)). According to assay guidelines, statistically significant suppression of ASO is required in 2 of 5 organs for a compound to be classified as an anti-androgen (analysis was performed by t-test/Mann-Whitney).
Compounds defined herein were administered at the indicated dose (mg/kg) and flutamide (FT), positive control, at 3 mg/kg. All compounds were co-administered with testosterone propionate (TP, 0.4 mg/kg) which was also administered alone, untreated control, (castrated only rats served as the control for complete androgen blockade). A statistically significant change in ASO achieved in at least 2 of 5 organs was indicative of an active compound.

T877A AR mutant = biological target: T5, T877A AR mutant (Homo sapiens, UniProt P10275, T878A); details: cited from earlier work
T5 sequence (P10275 1-920 T878A): T1 sequence (P10275 1-920 F877L) with L877F, T878A

[6] = maximum % inhibition of R1881 control response over tested concentration range
[7] = agonist mode, −Log10(EC50 [Molar]), read-out: LNCaP-AR-wt AG pEC50 (converted)
[8] = maximum % stimulation (agonist response) over tested concentration range
[9] = agonist mode, −Log10(EC50 [Molar]), read-out: LNCaP-AR-F876L AG pEC50 (converted)
[10] = 3 mg/kg orally QD 10 days with testosterone propionate 0.4 mg/kg, castrated rats, mean ± SD (n=6)

SMILES | Emax [1, 6] [%] | IC50 [1] [µM] | EC50 [2, 7] [µM] | EC50 [3, 9] [µM] | IC50 [4] [µM] | Emax [4, 6] [%] | Emax [2] [%] | Emax [3] [%] | also measured
Cc1cc(N2C(=O)C3(CCC3)N(c3ccc(OC4CCN(CCO)CC4)cc3)C2=S)cnc1C#N [Cpd 60, 5-[8-[4-[[1-(2-hydroxyethyl)-4-piperidyl]oxy]phenyl]-5-oxo-7-thioxo-6,8-diazaspiro[3.4]octan-6-yl]-3-methyl-pyridine-2-carbonitrile] | 99.3 | 0.525 | > 15.1 | > 15.1 | 0.933 | 98.7 | – | – | Emax [2, 8]: 1.1%; Emax [3, 8]: 0.7%; IC50 (F876L-VP16): 0.746 µM; IC50 (AR-VP16): 2.05 µM
CC(C)C(=O)Nc1ccc([N+](=O)[O-])c(C(F)(F)F)c1 [Flutamide, flutamide, reference compound] | – | – | – | – | – | – | – | – | ASO Organ Growth (% of TP control) SVCG [5, 10]: 22.5 ± 22.9 % of TP control and 16.6 ± 16.3 % of TP control; ASO Organ Growth (% of TP control) VP [5, 10]: 31.1 ± 29.2 % of TP control and 24.4 ± 35.5 % of TP control
CC(C)(O)C(=O)Nc1ccc([N+](=O)[O-])c(C(F)(F)F)c1 [hydroxyflutamide] | – | – | – | – | – | – | – | – | activity in T877A AR mutant (T877A AR mutant): act as AR agonists
N#Cc1ncc(N2C(=O)C3(CCC3)N(c3ccc(Oc4ccccc4)cc3)C2=S)cc1C(F)(F)F [Cpd 99, 5-[5-oxo-8-(4-phenoxyphenyl)-7-thioxo-6,8-diazaspiro[3.4]octan-6-yl]-3-(trifluoromethyl)pyridine-2-carbonitrile] | 85.9 | 0.389 | > 15.1 | > 15.1 | 0.417 | 97.2 | 1.6 | 1.6 | –
CN1CCN(CCCc2ccc(N3C(=S)N(c4cnc(C#N)c(C(F)(F)F)c4)C(=O)C34CCC4)cc2)CC1 [Cpd 43, 5-[8-[4-[3-(4-methylpiperazin-1-yl)propyl]phenyl]-5-oxo-7-thioxo-6,8-diazaspiro[3.4]octan-6-yl]-3-(trifluoromethyl)pyridine-2-carbonitrile] | – | 0.245 | – | – | 0.501 | – | 0.7 | 0.4 | Emax [1]: 98.9%; EC50 [2]: > 15.1 µM; EC50 [3]: > 15.1 µM; Emax [4]: 97.3%; reduction in ASO versus TP control ([5]; all 5 organs, p≦0.05): significant reduction in ASO
